Results from patent US20220175693A1, “DIETARY SUPPLEMENT COMPRISING LUTEIN FOR TELOMERE PROTECTION, AND METHOD FOR PRODUCTION THEREOF” (BIOGEN EXTRACTS PRIVATE LIMITED, priority 2019, published 2022).

Test system: human adult primary fibroblast cells
Assay: Proliferative analysis (population doubling, cell counts per passage) under standard and oxidative stress conditions
Format: cell-based
Procedure: Analysis of cellular proliferation rate and telomere length in cultures of human adult primary fibroblast cells treated with lutein under standard and oxidative stress conditions. Primary cultures of adult human fibroblast were established. Cells are seeded at 2×10^3 cells/cm2 in GlutaMax™ high glucose Dulbecco's modified Eagle's medium (DMEM, Gibco®), and supplemented with 10% fetal bovine serum (FBS, HyClone, Thermo Scientific), penicillin (100 U/ml) and reptomycin (1000 U/ml). Media is renewed every 2-3 days and cells passaged at sub-confluence (70-80%) every 4-5 days. Compounds or vehicle control are added to the cells in culture. Cell growth is monitored for each condition by counting cell numbers at each passage using a Countess™ cell counter (Invitrogen). Population doubling (PD) was calculated with the formula PD=(log (Nn/Nn-1))/log 2 where n is the passage; and N the number of cells. One PD is equivalent to one round of cell replication. Eight independent condition were evaluated by proliferative Analysis: Standard cell culture condition+Lutein−10 μg/ml (LUT10) Standard cell culture condition+Lutein−5 μg/ml (LUT5) Standard cell culture condition+Lutein−1 μg/ml (LUT1) Standard cell culture condition+Lutein−10 μg/ml+10 μM H2O2 (LUT10+H2O2) Standard cell culture condition+Lutein−5 μg/ml+10 μM H2O2(LUT5+H2O2) Standard cell culture condition+Lutein−1 μg/ml+10 μM H2O2 (LUT1+H2O2) Cells were expanded during eight weeks under standard and oxidative (10 μM H2O2) cell culture condition as described previously. Fresh treatments were prepared and added to the cells at every passage and also when media was renewed. Stock solution of 10 mg/ml of the compound was prepared in DMSO and the different treatments were prepared from that stock.

[1] = Lutein 1 μg/ml + 10 μM H2O2, week 1 (P1)
[2] = Lutein 1 μg/ml + 10 μM H2O2, week 2 (P2)
[3] = Lutein 1 μg/ml + 10 μM H2O2, week 3 (P3)
[4] = Lutein 1 μg/ml + 10 μM H2O2, week 4 (P4)
[5] = Lutein 1 μg/ml + 10 μM H2O2, week 5 (P5)
[6] = Lutein 1 μg/ml + 10 μM H2O2, week 6 (P6)
[7] = Lutein 1 μg/ml + 10 μM H2O2, week 7 (P7)
[8] = Lutein 1 μg/ml + 10 μM H2O2, week 8 (P8)
[9] = Lutein 1 μg/ml, standard culture, week 1 (P1)
[10] = Lutein 1 μg/ml, standard culture, week 2 (P2)
[11] = Lutein 1 μg/ml, standard culture, week 3 (P3)
[12] = Lutein 1 μg/ml, standard culture, week 4 (P4)
[13] = Lutein 1 μg/ml, standard culture, week 5 (P5)
[14] = Lutein 1 μg/ml, standard culture, week 6 (P6)
[15] = Lutein 1 μg/ml, standard culture, week 7 (P7)
[16] = Lutein 1 μg/ml, standard culture, week 8 (P8)
[17] = Lutein 5 μg/ml + 10 μM H2O2, week 1 (P1)
[18] = Lutein 5 μg/ml + 10 μM H2O2, week 2 (P2)
[19] = Lutein 5 μg/ml + 10 μM H2O2, week 3 (P3)
[20] = Lutein 5 μg/ml + 10 μM H2O2, week 4 (P4)
[21] = Lutein 5 μg/ml + 10 μM H2O2, week 5 (P5)
[22] = Lutein 5 μg/ml + 10 μM H2O2, week 6 (P6)
[23] = Lutein 5 μg/ml + 10 μM H2O2, week 7 (P7)
[24] = Lutein 5 μg/ml + 10 μM H2O2, week 8 (P8)
[25] = Lutein 5 μg/ml, standard culture, week 1 (P1)
[26] = Lutein 5 μg/ml, standard culture, week 2 (P2)
[27] = Lutein 5 μg/ml, standard culture, week 3 (P3)
[28] = Lutein 5 μg/ml, standard culture, week 4 (P4)
[29] = Lutein 5 μg/ml, standard culture, week 5 (P5)
[30] = Lutein 5 μg/ml, standard culture, week 6 (P6)
[31] = Lutein 5 μg/ml, standard culture, week 7 (P7)
[32] = Lutein 5 μg/ml, standard culture, week 8 (P8)
[33] = Lutein 10 μg/ml + 10 μM H2O2, week 1 (P1)
[34] = Lutein 10 μg/ml + 10 μM H2O2, week 2 (P2)
[35] = Lutein 10 μg/ml + 10 μM H2O2, week 3 (P3)
[36] = Lutein 10 μg/ml + 10 μM H2O2, week 4 (P4)
[37] = Lutein 10 μg/ml + 10 μM H2O2, week 5 (P5)
[38] = Lutein 10 μg/ml + 10 μM H2O2, week 6 (P6)
[39] = Lutein 10 μg/ml + 10 μM H2O2, week 7 (P7)
[40] = Lutein 10 μg/ml + 10 μM H2O2, week 8 (P8)
[41] = Lutein 10 μg/ml, standard culture, week 1 (P1)
[42] = Lutein 10 μg/ml, standard culture, week 2 (P2)
[43] = Lutein 10 μg/ml, standard culture, week 3 (P3)
[44] = Lutein 10 μg/ml, standard culture, week 4 (P4)
[45] = Lutein 10 μg/ml, standard culture, week 5 (P5)
[46] = Lutein 10 μg/ml, standard culture, week 6 (P6)
[47] = Lutein 10 μg/ml, standard culture, week 7 (P7)
[48] = Lutein 10 μg/ml, standard culture, week 8 (P8)

CC1=C[C@H](O)CC(C)(C)[C@H]1/C=C/C(C)=C/C=C/C(C)=C/C=C/C=C(C)/C=C/C=C(C)/C=C/C1=C(C)C[C@@H](O)CC1(C)C [Lutein]
Cumulative Population Doubling per passage [1]: 3.42
Population Doubling per passage [1]: 3.42
Total number of cells per passage [1]: 1.60E+06
Cumulative Population Doubling per passage [2]: 6.29
Population Doubling per passage [2]: 2.87
Total number of cells per passage [2]: 1.17E+07
Cumulative Population Doubling per passage [3]: 9.16
Population Doubling per passage [3]: 2.37
Total number of cells per passage [3]: 8.60E+07
Cumulative Population Doubling (Table 7A) (Lutein 1 μg/ml + 10 μM H2O2, week 4): 12.3
Cumulative Population Doubling per passage [4]: 12.28
Population Doubling per passage [4]: 3.12
Total number of cells per passage [4]: 7.46E+08
Cumulative Population Doubling per passage [5]: 14.76
Population Doubling per passage [5]: 2.49
Total number of cells per passage [5]: 4.18E+09
Cumulative Population Doubling per passage [6]: 17.41
Population Doubling per passage [6]: 2.65
Total number of cells per passage [6]: 2.62E+10
Cumulative Population Doubling per passage [7]: 18.41
Population Doubling per passage [7]: 1.00
Total number of cells per passage [7]: 5.23E+10
Cumulative Population Doubling (Table 7A) (Lutein 1 μg/ml + 10 μM H2O2, week 8): 20.7
Cumulative Population Doubling per passage [8]: 20.72
Population Doubling per passage [8]: 2.30
Total number of cells per passage [8]: 2.58E+11
Cumulative Population Doubling per passage [9]: 3.81
Population Doubling per passage [9]: 3.81
Total number of cells per passage [9]: 2.10E+06
Cumulative Population Doubling per passage [10]: 7.31
Population Doubling per passage [10]: 3.50
Total number of cells per passage [10]: 2.38E+07
Cumulative Population Doubling per passage [11]: 10.18
Population Doubling per passage [11]: 3.57
Total number of cells per passage [11]: 1.75E+08
Cumulative Population Doubling (Table 7A) (Lutein 1 μg/ml, standard culture, week 4): 13.7
Cumulative Population Doubling per passage [12]: 13.69
Population Doubling per passage [12]: 3.50
Total number of cells per passage [12]: 1.98E+09
Cumulative Population Doubling per passage [13]: 15.71
Population Doubling per passage [13]: 2.02
Total number of cells per passage [13]: 8.04E+09
Cumulative Population Doubling per passage [14]: 18.71
Population Doubling per passage [14]: 3.00
Total number of cells per passage [14]: 6.44E+10
Cumulative Population Doubling per passage [15]: 21.39
Population Doubling per passage [15]: 2.68
Total number of cells per passage [15]: 4.12E+11
Cumulative Population Doubling (Table 7A) (Lutein 1 μg/ml, standard culture, week 8): 24.1
Cumulative Population Doubling per passage [16]: 24.13
Population Doubling per passage [16]: 2.74
Total number of cells per passage [16]: 2.75E+12
Cumulative Population Doubling per passage [17]: 3.58
Population Doubling per passage [17]: 3.58
Total number of cells per passage [17]: 1.80E+06
Cumulative Population Doubling per passage [18]: 6.91
Population Doubling per passage [18]: 3.32
Total number of cells per passage [18]: 1.80E+07
Cumulative Population Doubling per passage [19]: 10.13
Population Doubling per passage [19]: 3.22
Total number of cells per passage [19]: 1.68E+08
Cumulative Population Doubling (Table 7A) (Lutein 5 μg/ml + 10 μM H2O2, week 4): 13.5
Cumulative Population Doubling per passage [20]: 13.54
Population Doubling per passage [20]: 3.42
Total number of cells per passage [20]: 1.79E+09
Cumulative Population Doubling per passage [21]: 15.70
Population Doubling per passage [21]: 2.16
Total number of cells per passage [21]: 8.00E+09
Cumulative Population Doubling per passage [22]: 17.84
Population Doubling per passage [22]: 2.14
Total number of cells per passage [22]: 3.52E+10
Cumulative Population Doubling per passage [23]: 20.71
Population Doubling per passage [23]: 2.87
Total number of cells per passage [23]: 2.58E+11
Cumulative Population Doubling (Table 7A) (Lutein 5 μg/ml + 10 μM H2O2, week 8): 23.1
Cumulative Population Doubling per passage [24]: 23.06
Population Doubling per passage [24]: 2.34
Total number of cells per passage [24]: 1.31E+12
Cumulative Population Doubling per passage [25]: 3.81
Population Doubling per passage [25]: 3.81
Total number of cells per passage [25]: 2.10E+06
Cumulative Population Doubling per passage [26]: 6.47
Population Doubling per passage [26]: 2.65
Total number of cells per passage [26]: 1.33E+07
Cumulative Population Doubling per passage [27]: 9.12
Population Doubling per passage [27]: 2.65
Total number of cells per passage [27]: 8.33E+07
Cumulative Population Doubling (Table 7A) (Lutein 5 μg/ml, standard culture, week 4): 12.5
Cumulative Population Doubling per passage [28]: 12.53
Population Doubling per passage [28]: 3.42
Total number of cells per passage [28]: 8.89E+09
Cumulative Population Doubling per passage [29]: 15.02
Population Doubling per passage [29]: 2.49
Total number of cells per passage [29]: 4.98E+09
Cumulative Population Doubling per passage [30]: 16.47
Population Doubling per passage [30]: 1.45
Total number of cells per passage [30]: 1.36E+10
Cumulative Population Doubling per passage [31]: 18.15
Population Doubling per passage [31]: 1.68
Total number of cells per passage [31]: 4.35E+10
Cumulative Population Doubling (Table 7A) (Lutein 5 μg/ml, standard culture, week 8): 21.3
Cumulative Population Doubling per passage [32]: 21.26
Population Doubling per passage [32]: 3.12
Total number of cells per passage [32]: 3.77E+11
Cumulative Population Doubling per passage [33]: 3.50
Population Doubling per passage [33]: 3.50
Total number of cells per passage [33]: 1.70E+06
Cumulative Population Doubling per passage [34]: 6.92
Population Doubling per passage [34]: 3.42
Total number of cells per passage [34]: 1.81E+07
Cumulative Population Doubling per passage [35]: 9.65
Population Doubling per passage [35]: 2.74
Total number of cells per passage [35]: 1.21E+08
Cumulative Population Doubling (Table 7A) (Lutein 10 μg/ml + 10 μM H2O2, week 4): 13.1
Cumulative Population Doubling per passage [36]: 13.07
Population Doubling per passage [36]: 3.42
Total number of cells per passage [36]: 1.29E+09
Cumulative Population Doubling per passage [37]: 14.97
Population Doubling per passage [37]: 1.90
Total number of cells per passage [37]: 4.81E+09
Cumulative Population Doubling per passage [38]: 16.97
Population Doubling per passage [38]: 2.00
Total number of cells per passage [38]: 1.93E+09
Cumulative Population Doubling per passage [39]: 18.52
Population Doubling per passage [39]: 1.55
Total number of cells per passage [39]: 5.65E+10
Cumulative Population Doubling (Table 7A) (Lutein 10 μg/ml + 10 μM H2O2, week 8): 20.8
Cumulative Population Doubling per passage [40]: 20.83
Population Doubling per passage [40]: 2.30
Total number of cells per passage [40]: 2.79E+11
Cumulative Population Doubling per passage [41]: 3.58
Population Doubling per passage [41]: 3.58
Total number of cells per passage [41]: 1.80E+06
Cumulative Population Doubling per passage [42]: 6.70
Population Doubling per passage [42]: 3.12
Total number of cells per passage [42]: 1.56E+07
Cumulative Population Doubling per passage [43]: 9.82
Population Doubling per passage [43]: 3.12
Total number of cells per passage [43]: 1.35E+08
Cumulative Population Doubling (Table 7A) (Lutein 10 μg/ml, standard culture, week 4): 13.3
Cumulative Population Doubling per passage [44]: 13.32
Population Doubling per passage [44]: 3.50
Total number of cells per passage [44]: 1.53E+09
Cumulative Population Doubling per passage [45]: 15.75
Population Doubling per passage [45]: 2.43
Total number of cells per passage [45]: 8.27E+09
Cumulative Population Doubling per passage [46]: 18.49
Population Doubling per passage [46]: 2.74
Total number of cells per passage [46]: 5.52E+10
Cumulative Population Doubling per passage [47]: 21.18
Population Doubling per passage [47]: 2.69
Total number of cells per passage [47]: 3.57E+11
Cumulative Population Doubling (Table 7A) (Lutein 10 μg/ml, standard culture, week 8): 23.9
Cumulative Population Doubling per passage [48]: 23.92
Population Doubling per passage [48]: 2.74
Total number of cells per passage [48]: 2.38E+12
Proliferation rate compared to control group (H2O2) (Lutein 10, 5 and 1 μg/ml + 10 μM H2O2 (oxidative culture conditions), after eight weeks): increase in proliferation rate
Proliferation rate compared to control (Ctrl) (Lutein 10, 5 and 1 μg/ml, standard culture conditions, after eight weeks): no difference
